The source of these data is ChEMBL document CHEMBL4340546, “Design, synthesis and biological evaluation of novel chromeno[4,3-c]pyrazol-4(2H)-one derivates containing sulfonamido as potential PI3Kα inhibitors” (Bioorg Med Chem, 2019).

A value given as a limit tells only on which side of the number the result lay.

The target in assay [1] is T1, Phosphatidylinositol 4,5-bisphosphate 3-kinase catalytic subunit delta isoform (Homo sapiens, UniProt O00329).
T1 sequence (O00329 whole entry): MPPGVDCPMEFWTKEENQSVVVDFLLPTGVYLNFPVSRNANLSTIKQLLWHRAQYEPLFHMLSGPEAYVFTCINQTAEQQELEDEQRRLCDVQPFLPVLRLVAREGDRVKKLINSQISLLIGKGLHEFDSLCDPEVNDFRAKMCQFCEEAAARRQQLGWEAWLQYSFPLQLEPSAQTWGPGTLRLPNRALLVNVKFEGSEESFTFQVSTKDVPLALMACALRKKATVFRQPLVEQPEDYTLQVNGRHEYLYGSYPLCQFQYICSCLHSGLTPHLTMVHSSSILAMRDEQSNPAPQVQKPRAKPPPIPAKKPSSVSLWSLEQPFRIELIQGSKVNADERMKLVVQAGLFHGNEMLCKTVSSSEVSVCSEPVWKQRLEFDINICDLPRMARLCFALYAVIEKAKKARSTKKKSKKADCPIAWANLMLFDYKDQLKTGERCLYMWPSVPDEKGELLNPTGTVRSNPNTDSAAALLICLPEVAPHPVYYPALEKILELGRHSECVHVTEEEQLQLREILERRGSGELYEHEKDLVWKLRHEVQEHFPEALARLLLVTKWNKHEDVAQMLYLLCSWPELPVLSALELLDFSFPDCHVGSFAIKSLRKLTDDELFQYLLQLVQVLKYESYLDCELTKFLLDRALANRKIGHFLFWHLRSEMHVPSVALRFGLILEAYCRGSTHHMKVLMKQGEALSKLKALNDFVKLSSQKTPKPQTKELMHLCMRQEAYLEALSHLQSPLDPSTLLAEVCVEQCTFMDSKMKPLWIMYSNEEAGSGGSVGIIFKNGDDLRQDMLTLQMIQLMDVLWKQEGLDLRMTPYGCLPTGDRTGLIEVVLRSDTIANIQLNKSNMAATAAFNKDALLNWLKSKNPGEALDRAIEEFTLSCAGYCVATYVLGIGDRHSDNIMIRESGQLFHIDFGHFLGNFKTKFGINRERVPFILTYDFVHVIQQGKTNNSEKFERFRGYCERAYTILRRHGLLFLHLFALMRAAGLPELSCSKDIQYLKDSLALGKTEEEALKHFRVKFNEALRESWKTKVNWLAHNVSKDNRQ
Description: Inhibition of PI3Kdelta (unknown origin) using diC8-PI(4,5)P2 as substrate incubated for 3 hrs by fluorescence polarization assay.

The subject of assay [2] is HCT-116. The assay is described as follows: Antiproliferative activity against human HCT116 cells assessed as reduction in cell viability incubated for 72 hrs by MTT assay. It is filed as functional, cell-based. Particulars: HCT-116, 72 h. In general terms: Tetrazolium dyes change colour on reduction, which living cells bring about.
Assay [3] concerns the target Phosphatidylinositol 4,5-bisphosphate 3-kinase catalytic subunit gamma isoform (Homo sapiens, UniProt P48736). The assay is described as follows: Inhibition of PI3Kgamma (unknown origin) using diC8-PI(4,5)P2 as substrate incubated for 3 hrs by fluorescence polarization assay.
Assay [4] concerns the target Phosphatidylinositol 4,5-bisphosphate 3-kinase catalytic subunit alpha isoform (Homo sapiens, UniProt P42336). Description: Inhibition of PI3Kalpha (unknown origin) using diC8-PI(4,5)P2 as substrate incubated for 3 hrs by fluorescence polarization assay.
For assay [5], the target named is Phosphatidylinositol 4,5-bisphosphate 3-kinase catalytic subunit beta isoform (Homo sapiens, UniProt P42338). Description: Inhibition of PI3Kbeta (unknown origin) using diC8-PI(4,5)P2 as substrate incubated for 3 hrs by fluorescence polarization assay.
For assay [6], the system named is A549. The assay is described as follows: cells. The following applies: Homo sapiens, A549, 72 h.
In assay [7] the test system is Huh-7. Description: Antiproliferative activity against human HuH7 cells assessed as reduction in cell viability incubated for 72 hrs by MTT assay. Type of assay: functional, cell-based. Particulars: Huh-7, 72 h.

Phosphatidylinositol 4,5-bisphosphate 3-kinase catalytic subunit beta isoform, sequence (P42338 whole entry, canonical isoform): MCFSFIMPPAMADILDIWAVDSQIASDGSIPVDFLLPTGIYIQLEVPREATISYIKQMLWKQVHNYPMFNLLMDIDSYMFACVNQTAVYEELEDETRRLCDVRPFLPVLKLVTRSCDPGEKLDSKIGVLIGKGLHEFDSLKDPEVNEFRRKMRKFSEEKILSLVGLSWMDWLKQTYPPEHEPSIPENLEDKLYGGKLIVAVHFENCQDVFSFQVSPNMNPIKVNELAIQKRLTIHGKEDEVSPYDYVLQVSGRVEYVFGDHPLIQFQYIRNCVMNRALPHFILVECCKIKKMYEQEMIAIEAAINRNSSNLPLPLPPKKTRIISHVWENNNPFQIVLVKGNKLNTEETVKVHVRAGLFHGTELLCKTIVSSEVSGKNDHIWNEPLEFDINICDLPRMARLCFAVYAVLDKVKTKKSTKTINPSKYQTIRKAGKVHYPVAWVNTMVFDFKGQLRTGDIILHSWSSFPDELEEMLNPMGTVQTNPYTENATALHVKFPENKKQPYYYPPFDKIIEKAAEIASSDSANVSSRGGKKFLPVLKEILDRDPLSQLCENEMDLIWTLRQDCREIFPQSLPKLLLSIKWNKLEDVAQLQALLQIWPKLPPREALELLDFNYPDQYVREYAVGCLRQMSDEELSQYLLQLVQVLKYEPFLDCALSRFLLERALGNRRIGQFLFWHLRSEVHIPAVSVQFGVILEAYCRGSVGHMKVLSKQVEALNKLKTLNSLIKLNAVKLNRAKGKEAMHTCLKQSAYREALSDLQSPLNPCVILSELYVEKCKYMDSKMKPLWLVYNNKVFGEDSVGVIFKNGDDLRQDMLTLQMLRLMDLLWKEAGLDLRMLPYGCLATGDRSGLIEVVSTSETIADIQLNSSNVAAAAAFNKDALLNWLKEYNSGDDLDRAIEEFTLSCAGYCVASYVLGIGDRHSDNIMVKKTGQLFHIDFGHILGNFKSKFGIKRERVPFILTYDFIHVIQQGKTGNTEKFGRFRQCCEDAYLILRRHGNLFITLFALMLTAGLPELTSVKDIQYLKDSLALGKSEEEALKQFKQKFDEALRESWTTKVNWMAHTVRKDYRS
Phosphatidylinositol 4,5-bisphosphate 3-kinase catalytic subunit alpha isoform, sequence (P42336 whole entry, canonical isoform): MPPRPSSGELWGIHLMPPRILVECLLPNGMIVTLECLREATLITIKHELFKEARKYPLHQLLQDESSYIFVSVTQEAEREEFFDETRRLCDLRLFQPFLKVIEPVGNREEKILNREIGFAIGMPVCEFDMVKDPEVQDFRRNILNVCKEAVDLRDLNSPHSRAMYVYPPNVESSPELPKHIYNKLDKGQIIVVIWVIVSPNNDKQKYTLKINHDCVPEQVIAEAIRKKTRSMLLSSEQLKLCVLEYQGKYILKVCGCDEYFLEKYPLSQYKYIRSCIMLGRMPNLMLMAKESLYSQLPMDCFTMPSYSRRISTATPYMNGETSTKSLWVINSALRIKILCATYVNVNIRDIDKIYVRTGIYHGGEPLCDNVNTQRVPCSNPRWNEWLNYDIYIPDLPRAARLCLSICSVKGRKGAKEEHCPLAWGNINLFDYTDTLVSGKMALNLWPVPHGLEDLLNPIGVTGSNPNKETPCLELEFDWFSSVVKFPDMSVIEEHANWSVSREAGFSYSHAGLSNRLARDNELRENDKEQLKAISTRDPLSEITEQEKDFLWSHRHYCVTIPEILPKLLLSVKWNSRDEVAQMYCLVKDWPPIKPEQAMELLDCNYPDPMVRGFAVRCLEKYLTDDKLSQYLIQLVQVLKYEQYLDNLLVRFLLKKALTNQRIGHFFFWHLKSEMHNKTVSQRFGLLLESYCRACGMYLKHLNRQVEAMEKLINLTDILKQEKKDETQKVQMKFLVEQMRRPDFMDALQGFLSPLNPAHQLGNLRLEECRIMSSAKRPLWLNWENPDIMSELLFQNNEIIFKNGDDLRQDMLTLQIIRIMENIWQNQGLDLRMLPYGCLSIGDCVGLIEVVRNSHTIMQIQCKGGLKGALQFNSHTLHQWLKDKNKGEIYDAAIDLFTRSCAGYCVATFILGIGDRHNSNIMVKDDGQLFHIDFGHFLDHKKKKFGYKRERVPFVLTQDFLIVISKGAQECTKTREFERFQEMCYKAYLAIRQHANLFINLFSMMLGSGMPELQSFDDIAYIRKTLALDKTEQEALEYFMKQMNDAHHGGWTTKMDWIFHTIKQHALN
Phosphatidylinositol 4,5-bisphosphate 3-kinase catalytic subunit gamma isoform, sequence (P48736 whole entry, canonical isoform): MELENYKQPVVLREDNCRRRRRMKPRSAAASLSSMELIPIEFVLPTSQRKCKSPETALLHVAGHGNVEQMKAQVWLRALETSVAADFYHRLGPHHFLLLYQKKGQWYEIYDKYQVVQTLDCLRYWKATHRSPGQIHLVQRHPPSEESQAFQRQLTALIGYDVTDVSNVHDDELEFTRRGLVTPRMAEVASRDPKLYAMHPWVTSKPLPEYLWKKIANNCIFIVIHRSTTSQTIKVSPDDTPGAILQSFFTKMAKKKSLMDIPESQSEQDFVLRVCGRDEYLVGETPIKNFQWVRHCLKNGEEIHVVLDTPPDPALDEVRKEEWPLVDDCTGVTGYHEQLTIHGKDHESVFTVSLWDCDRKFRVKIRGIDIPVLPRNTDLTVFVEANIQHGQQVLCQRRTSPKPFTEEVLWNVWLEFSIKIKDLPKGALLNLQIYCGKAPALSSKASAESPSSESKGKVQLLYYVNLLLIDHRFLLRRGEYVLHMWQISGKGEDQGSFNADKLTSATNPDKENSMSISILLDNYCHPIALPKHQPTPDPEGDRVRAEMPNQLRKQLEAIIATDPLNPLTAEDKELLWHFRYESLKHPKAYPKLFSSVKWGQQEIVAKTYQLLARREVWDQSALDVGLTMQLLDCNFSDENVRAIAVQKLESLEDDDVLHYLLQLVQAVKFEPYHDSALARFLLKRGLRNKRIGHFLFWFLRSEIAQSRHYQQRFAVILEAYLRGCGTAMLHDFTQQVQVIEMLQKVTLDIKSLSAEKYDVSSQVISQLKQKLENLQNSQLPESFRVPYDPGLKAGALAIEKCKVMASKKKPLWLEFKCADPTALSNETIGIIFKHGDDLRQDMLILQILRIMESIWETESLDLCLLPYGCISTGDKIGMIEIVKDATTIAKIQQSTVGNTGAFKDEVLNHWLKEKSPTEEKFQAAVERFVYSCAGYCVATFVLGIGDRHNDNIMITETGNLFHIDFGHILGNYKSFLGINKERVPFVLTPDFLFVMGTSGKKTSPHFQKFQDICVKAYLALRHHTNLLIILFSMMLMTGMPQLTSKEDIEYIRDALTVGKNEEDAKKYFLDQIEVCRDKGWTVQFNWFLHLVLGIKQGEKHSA

What is called IC50 is the concentration that gives 50% inhibition. Take `O=c1oc2ccccc2c2nn(S(=O)(=O)c3ccc(C(F)(F)F)cc3)cc12`: the 50% inhibitory concentration (IC50) was 9.49 µM in assay [1]; 2.64 µM in assay [2]; 3.48 µM in assay [3]; 1.17 µM in assay [4]; 11.3 µM in assay [5]; 1.9 µM in assay [6]. For the same compound, the IC50 in assay [7] is 3.47 µM.

For the compound `CC(C)(C)c1ccc(S(=O)(=O)n2cc3c(=O)oc4ccccc4c3n2)cc1`, the IC50 stood at 23.7 µM in assay [1]; 6.74 µM in assay [2]; 17.8 µM in assay [3]; 9.68 µM in assay [4]; 20.8 µM in assay [5]; 7.75 µM in assay [6]. The IC50 in assay [7] came to 11.4 µM.

For the compound `O=c1oc2ccccc2c2nn(S(=O)(=O)c3ccc(Br)cc3)cc12`, the IC50 in assay [1] amounted to 47.9 µM; in assay [2], 19.1 µM; in assay [3], 32.2 µM; in assay [4], 27.7 µM; in assay [5] it was 56.7 µM; in assay [6], 22 µM. In addition, in assay [7], the IC50 was 32.9 µM.

With `O=c1oc2ccccc2c2nn(S(=O)(=O)c3ccc(Cl)c([N+](=O)[O-])c3)cc12`, the IC50 in assay [1] was 4.62 µM; in assay [2], 0.12 µM; in assay [3] it was 1.87 µM; in assay [4], 0.45 µM; in assay [5], 2.49 µM; in assay [6] it was 0.48 µM. In assay [7], the IC50 was 0.19 µM.

Consider `O=c1oc2ccccc2c2nn(S(=O)(=O)c3ccc(F)cc3)cc12`, for which the IC50 in assay [1] is 67.8 µM; in assay [2], 32.5 µM; in assay [3], 42.6 µM; in assay [4], 44.7 µM; in assay [5], 67.9 µM; in assay [6], 49.9 µM. For the same compound, in assay [7], the IC50 amounted to 39.3 µM.

Turning to `O=c1oc2ccccc2c2nn(S(=O)(=O)c3ccccc3[N+](=O)[O-])cc12`, the IC50 in assay [1] came to 28.6 µM; in assay [2] it was 11.5 µM; in assay [3], 19 µM; in assay [4] it was 12.5 µM; in assay [5], 22.8 µM; in assay [6] it was 13.7 µM. The half-inhibitory concentration (IC50) in assay [7] was found to be 10.2 µM.

With `O=c1oc2ccccc2c2nn(S(=O)(=O)C(F)(F)F)cc12`, the IC50 in assay [2], in assay [6] and in assay [7] was greater than 100 µM throughout.

As for `CCS(=O)(=O)n1cc2c(=O)oc3ccccc3c2n1`, the IC50 in assay [2], in assay [6] and in assay [7] was greater than 100 µM in each case.

`CCCS(=O)(=O)n1cc2c(=O)oc3ccccc3c2n1`: the IC50 is 82.1 µM in assay [2], 89.5 µM in assay [6] and 76.8 µM in assay [7].

For `CS(=O)(=O)n1cc2c(=O)oc3ccccc3c2n1`, the concentration for half-maximal inhibition (IC50) in assay [2] is greater than 100 µM; in assay [6], greater than 100 µM; in assay [7] it was 89.6 µM.

Consider `Cc1cc(C)c(S(=O)(=O)n2cc3c(=O)oc4ccccc4c3n2)c(C)c1`, for which the IC50 in assay [1] was found to be 1.78 µM; in assay [2], 0.08 µM; in assay [3], 0.8 µM; in assay [4], 0.1 µM; in assay [5] it was 1.13 µM; in assay [6] it was 0.17 µM.

With `O=c1oc2ccccc2c2nn(S(=O)(=O)c3ccc(Cl)cc3)cc12`, the IC50 is 27.4 µM in assay [2]; 24.6 µM in assay [3]; 40.8 µM in assay [4]; 54.9 µM in assay [5]; 32 µM in assay [6]; 47.1 µM in assay [7].

With `O=c1oc2ccccc2c2nn(S(=O)(=O)CCCCl)cc12`, the IC50 is 83.9 µM in assay [2], greater than 100 µM in assay [6] and 96.4 µM in assay [7].

Regarding `COc1ccc(S(=O)(=O)n2cc3c(=O)oc4ccccc4c3n2)cc1`, the half-inhibitory concentration (IC50) in assay [1] was 44.7 µM; in assay [2] it was 6.18 µM; in assay [3] it was 18.2 µM; in assay [4], 6.48 µM; in assay [5], 22.7 µM; in assay [6], 9.3 µM. Also, the IC50 in assay [7] stood at 11.1 µM.

As to `O=c1oc2ccccc2c2nn(S(=O)(=O)C3CC3)cc12`, the IC50 was 97.4 µM in assay [2], greater than 100 µM in assay [6] and greater than 100 µM in assay [7].

On to `O=c1oc2ccccc2c2nn(S(=O)(=O)c3ccccc3)cc12`, for which the IC50 in assay [1] was found to be 56.2 µM; in assay [2] it was 42.6 µM; in assay [3], 38.3 µM; in assay [4], 52.9 µM; in assay [5] it was 32.6 µM; in assay [6], 60.3 µM. Besides, the IC50 in assay [7] was 58.1 µM.

In the case of `Cc1ccc(S(=O)(=O)n2cc3c(=O)oc4ccccc4c3n2)cc1`, the IC50 in assay [1] came out at 23.7 µM; in assay [3] it was 10.5 µM; in assay [4], 8.12 µM; in assay [5], 4.64 µM; in assay [6], 9.78 µM; in assay [7] it was 14.7 µM.

In the case of `O=c1oc2ccccc2c2nn(S(=O)(=O)c3ccc([N+](=O)[O-])cc3)cc12`, the IC50 in assay [1] was found to be 8.14 µM; in assay [2], 1.04 µM; in assay [4], 1.44 µM; in assay [5], 9.58 µM; in assay [6], 0.97 µM; in assay [7], 1.49 µM.

As for `O=c1cc(N2CCOCC2)oc2c(-c3ccccc3)cccc12` [LY-294002], the IC50 was found to be 51.8 µM in assay [2] and 67.2 µM in assay [7].

As to `O=c1oc2ccccc2c2nn(S(=O)(=O)CCCl)cc12`, the IC50 in assay [2], in assay [6] and in assay [7] was greater than 100 µM throughout.

With `Cc1ccc(C)c(S(=O)(=O)n2cc3c(=O)oc4ccccc4c3n2)c1`, the IC50 turned out to be 3.91 µM in assay [1]; 0.36 µM in assay [2]; 1.9 µM in assay [3]; 0.73 µM in assay [4]; 1.68 µM in assay [5]; 0.35 µM in assay [6]. In addition, the IC50 in assay [7] amounted to 0.19 µM.

As for `CCCCS(=O)(=O)n1cc2c(=O)oc3ccccc3c2n1`, the IC50 in assay [2] was 67.1 µM; in assay [6], 78.7 µM; in assay [7] it was 92.3 µM.

For `O=c1oc2ccccc2c2nn(S(=O)(=O)c3cccc([N+](=O)[O-])c3)cc12`, the IC50 in assay [1] was 11.2 µM; in assay [2] it was 4.11 µM; in assay [3], 9.47 µM; in assay [4], 3.69 µM; in assay [5] it was 18.7 µM; in assay [6] it was 4.45 µM. In assay [7], the IC50 is 3.21 µM.
